The subject of the data set is CCRIS mutagenicity, Ames/micronucleus/aberration tests. Kind of data set: CCRIS mutagenicity studies.
Setting [1] is: Test System: AMES SALMONELLA TYPHIMURIUM, Strain/Indicator: TA98, Metabolic Activation: NONE, Method: STANDARD PLATE.
Setting [2] is: Test System: AMES SALMONELLA TYPHIMURIUM, Strain/Indicator: TA98, Metabolic Activation: RAT, LIVER, S-9, AROCLOR 1254, Method: STANDARD PLATE.
Where [3] appears, read: Test System: AMES SALMONELLA TYPHIMURIUM, Strain/Indicator: TA100, Metabolic Activation: NONE, Method: STANDARD PLATE.
The mark [4] stands for this setting: Test System: AMES SALMONELLA TYPHIMURIUM, Strain/Indicator: TA1535, Metabolic Activation: NONE, Method: STANDARD PLATE.
Where [5] appears, read: Test System: AMES SALMONELLA TYPHIMURIUM, Strain/Indicator: TA1535, Metabolic Activation: RAT, LIVER, S-9, AROCLOR 1254, Method: STANDARD PLATE.
Where [6] appears, read: Test System: AMES SALMONELLA TYPHIMURIUM, Strain/Indicator: TA1537, Metabolic Activation: NONE, Method: STANDARD PLATE.
The mark [7] stands for this setting: Test System: AMES SALMONELLA TYPHIMURIUM, Strain/Indicator: TA1537, Metabolic Activation: RAT, LIVER, S-9, AROCLOR 1254, Method: STANDARD PLATE.
Where [8] appears, read: Test System: AMES SALMONELLA TYPHIMURIUM, Strain/Indicator: TA1538, Metabolic Activation: NONE, Method: STANDARD PLATE.
[9] abbreviates: Test System: AMES SALMONELLA TYPHIMURIUM, Strain/Indicator: TA1538, Metabolic Activation: RAT, LIVER, S-9, AROCLOR 1254, Method: STANDARD PLATE.
Setting [10] is: Test System: AMES SALMONELLA TYPHIMURIUM, Strain/Indicator: TA97, Metabolic Activation: NONE, Method: STANDARD PLATE.

Active and inactive are the calls of the source. The rule behind the calls is not given here.

With `Nc1cc(C(F)(F)F)ccc1Cl`, the mutagenic call is, setting by setting: under setting [1], “inactive; negative”; under setting [2], “inactive; negative”; under setting [3], “inactive; negative”; (Test System: AMES SALMONELLA TYPHIMURIUM, Strain/Indicator: TA100, Metabolic Activation: RAT, LIVER, S-9, AROCLOR 1254, Method: STANDARD PLATE) “inactive; negative”; under setting [4], “inactive; negative”; under setting [5], “inactive; negative”. The mutagenic call under setting [6] is “inactive; negative”, the mutagenic call under setting [7] was “inactive; negative”, the mutagenic call under setting [8] is “inactive; negative” and the mutagenic call under setting [9] was “inactive; negative”.
Turning to `N=c1ccc2nc3ccc(N)cc3sc-2c1`, the mutagenic call runs as follows: under setting [1], “active; positive”; under setting [2], “active; positive”; under setting [4], “inactive; negative”; under setting [5], “inactive; negative”; under setting [6], “inactive; negative”; under setting [7], “inactive; negative”. Also, the mutagenic call runs as follows: under setting [8], “active; positive”; under setting [9], “active; positive”.
In the case of `CCCCN(CC(C)=O)N=O`, the mutagenic call (Test System: AMES SALMONELLA TYPHIMURIUM, Strain/Indicator: TA1535, Metabolic Activation: RAT, LIVER, S-9, KC500 OR PHENOBARBITAL, Method: LIQUID SUSPENSION) was “active; positive”.
Consider `C=Cc1ccccc1Cl`, for which the mutagenic call is, setting by setting: (Test System: AMES SALMONELLA TYPHIMURIUM, Strain/Indicator: TA97, Metabolic Activation: HAMSTER, LIVER, S-9, AROCLOR 1254 (10 OR 30%), Method: PREINCUBATION) “inactive; negative”; (Test System: AMES SALMONELLA TYPHIMURIUM, Strain/Indicator: TA97, Metabolic Activation: NONE, Method: PREINCUBATION) “inactive; negative”; (Test System: AMES SALMONELLA TYPHIMURIUM, Strain/Indicator: TA97, Metabolic Activation: RAT, LIVER, S-9, AROCLOR 1254 (10 OR 30%), Method: PREINCUBATION) “inactive; negative”; (Test System: AMES SALMONELLA TYPHIMURIUM, Strain/Indicator: TA98, Metabolic Activation: HAMSTER, LIVER, S-9, AROCLOR 1254 (10 OR 30%), Method: PREINCUBATION) “inactive; negative”; (Test System: AMES SALMONELLA TYPHIMURIUM, Strain/Indicator: TA98, Metabolic Activation: NONE, Method: PREINCUBATION) “inactive; negative”; (Test System: AMES SALMONELLA TYPHIMURIUM, Strain/Indicator: TA98, Metabolic Activation: RAT, LIVER, S-9, AROCLOR 1254 (10 OR 30%), Method: PREINCUBATION) “inactive; negative”. Moreover, the mutagenic call is “inactive; negative” (Test System: AMES SALMONELLA TYPHIMURIUM, Strain/Indicator: TA100, Metabolic Activation: HAMSTER, LIVER, S-9, AROCLOR 1254 (10 OR 30%), Method: PREINCUBATION); “inactive; negative” (Test System: AMES SALMONELLA TYPHIMURIUM, Strain/Indicator: TA100, Metabolic Activation: NONE, Method: PREINCUBATION); “inactive; negative” (Test System: AMES SALMONELLA TYPHIMURIUM, Strain/Indicator: TA100, Metabolic Activation: RAT, LIVER, S-9, AROCLOR 1254 (10 OR 30%), Method: PREINCUBATION); “inactive; negative” (Test System: AMES SALMONELLA TYPHIMURIUM, Strain/Indicator: TA1535, Metabolic Activation: HAMSTER, LIVER, S-9, AROCLOR 1254 (10 OR 30%), Method: PREINCUBATION); “inactive; negative” (Test System: AMES SALMONELLA TYPHIMURIUM, Strain/Indicator: TA1535, Metabolic Activation: NONE, Method: PREINCUBATION); “inactive; negative” (Test System: AMES SALMONELLA TYPHIMURIUM, Strain/Indicator: TA1535, Metabolic Activation: RAT, LIVER, S-9, AROCLOR 1254 (10 OR 30%), Method: PREINCUBATION).
As to `CC(C)N1C(=O)c2ccccc2NS1(=O)=O`, the mutagenic call is “inactive; negative” under setting [10]; “inactive; negative” (Test System: AMES SALMONELLA TYPHIMURIUM, Strain/Indicator: TA97, Metabolic Activation: RAT, LIVER, S-9, DELOR 103, Method: STANDARD PLATE); “inactive; negative” under setting [1]; “inactive; negative” (Test System: AMES SALMONELLA TYPHIMURIUM, Strain/Indicator: TA98, Metabolic Activation: RAT, LIVER, S-9, DELOR 103, Method: STANDARD PLATE); “inactive; negative” under setting [3]; “inactive; negative” (Test System: AMES SALMONELLA TYPHIMURIUM, Strain/Indicator: TA100, Metabolic Activation: RAT, LIVER, S-9, DELOR 103, Method: STANDARD PLATE). For the same molecule, the mutagenic call is, setting by setting: under setting [4], “inactive; negative”; (Test System: AMES SALMONELLA TYPHIMURIUM, Strain/Indicator: TA1535, Metabolic Activation: RAT, LIVER, S-9, DELOR 103, Method: STANDARD PLATE) “inactive; negative”; under setting [8], “inactive; negative”; (Test System: AMES SALMONELLA TYPHIMURIUM, Strain/Indicator: TA1538, Metabolic Activation: RAT, LIVER, S-9, DELOR 103, Method: STANDARD PLATE) “inactive; negative”.
Take `CC1COCc2cc3c(cc21)C(C)(C)C(C)C3(C)C` (stereo not given): the mutagenic call reads like this: under setting [10], “inactive; negative”; (Test System: AMES SALMONELLA TYPHIMURIUM, Strain/Indicator: TA97, Metabolic Activation: RAT LIVER S-9, AROCLOR 1254, Method: STANDARD PLATE) “inactive; negative”; under setting [1], “inactive; negative”; (Test System: AMES SALMONELLA TYPHIMURIUM, Strain/Indicator: TA98, Metabolic Activation: RAT LIVER S-9,AROCLOR 1254, Method: STANDARD PLATE) “inactive; negative”; under setting [3], “inactive; negative”; (Test System: AMES SALMONELLA TYPHIMURIUM, Strain/Indicator: TA100, Metabolic Activation: RAT LIVER S-9, AROCLOR 1254, Method: STANDARD PLATE) “inactive; negative”. The mutagenic call is, setting by setting: (Test System: AMES SALMONELLA TYPHIMURIUM, Strain/Indicator: TA102, Metabolic Activation: NONE, Method: STANDARD PLATE) “inactive; negative”; (Test System: AMES SALMONELLA TYPHIMURIUM, Strain/Indicator: TA102, Metabolic Activation: RAT LIVER S-9, AROCLOR 1254, Method: STANDARD PLATE) “inactive; negative”; under setting [4], “inactive; negative”; (Test System: AMES SALMONELLA TYPHIMURIUM, Strain/Indicator: TA1535, Metabolic Activation: RAT LIVER S-9, AROCLOR 1254, Method: STANDARD PLATE) “inactive; negative”; under setting [6], “inactive; negative”; (Test System: AMES SALMONELLA TYPHIMURIUM, Strain/Indicator: TA1537, Metabolic Activation: RAT LIVER S-9, AROCLOR 1254, Method: STANDARD PLATE) “inactive; negative”. The mutagenic call is “inactive; negative” under setting [8]; “inactive; negative” (Test System: AMES SALMONELLA TYPHIMURIUM, Strain/Indicator: TA1538, Metabolic Activation: RAT LIVER S-9, AROCLOR 1254, Method: STANDARD PLATE); “inactive; negative” (Test System: ESCHERICHIA COLI, Strain/Indicator: WP2 UVR A, Metabolic Activation: NONE, Method: STANDARD PLATE); “inactive; negative” (Test System: ESCHERICHIA COLI, Strain/Indicator: WP2 UVR A, Metabolic Activation: RAT LIVER S-9, AROCLOR 1254, Method: STANDARD PLATE); “inactive; negative” (Test System: UDS RAT HEPATOCYTES, Metabolic Activation: NONE, Method: NET NUCLEAR GRAIN COUNT).
In the case of `Cc1cc2nc3cc(C)c(N)cc3[n+](-c3ccccc3)c2cc1N`, the mutagenic call runs as follows: (Test System: AMES SALMONELLA TYPHIMURIUM, Strain/Indicator: TA98, Method: PREINCUBATION) “active; positive”; (Test System: AMES SALMONELLA TYPHIMURIUM, Strain/Indicator: TA100, Method: PREINCUBATION) “active; positive”.

The values above are taken from PubChem BioAssay AID1259407 (Chemical Carcinogenesis Research Information System (CCRIS), 2018).
